Earlier results, collected in patent US20030055013A1, “HCV combination therapy” (SCHERING CORPORATION, priority 2001, published 2003).

Tests used:
[1] = monotherapy, patients with chronic hepatitis C, prior studies
[2] = per 1 mg (Goodman & Gilman)
[3] = tested on: chronic childhood cholestasis; conditions: 20-25 IU/kg/day (Sokool et al.)
[4] = stored between 2° and 8° C. and used within 24 hours of reconstitution
HIV patients = conditions: higher doses, PO, Phase I/II clinical trials (PharmaProjects)

Compound	potency of 1 mg in IU of Vitamin E [2]	further results
NC(=O)c1ncn([C@@H]2O[C@H](CO)[C@@H](O)[C@H]2O)n1 [Ribavirin, ribavirin]		patients with reduction in hemoglobin of greater than 4 g/dL [1]: 15.7 % of patients
CC(=O)Oc1c(C)c(C)c2c(c1C)CC[C@@](C)(CCC[C@H](C)CCC[C@H](C)CCCC(C)C)O2 (racemic) [dl-alpha tocopheryl acetate]	one	
CC(=O)Oc1c(C)c(C)c2c(c1C)CC[C@@](C)(CCC[C@H](C)CCC[C@H](C)CCCC(C)C)O2 [d-alpha tocopheryl acetate]	1.36 IU	
Cc1c(C)c2c(c(C)c1OC(=O)CCC(=O)O)CC[C@@](C)(CCC[C@H](C)CCC[C@H](C)CCCC(C)C)O2 [d-alpha tocopheryl succinate]	1.21 IU	
d-alpha-tocopheryl polyethylene glycol 1000 succinate [Vitamin E-TPGS]		safety and efficacy in chronic childhood cholestasis [3]: safe and effective
Cc1c(C)c2c(c(C)c1O)CC[C@@](C)(CCC[C@H](C)CCC[C@H](C)CCCC(C)C)O2 [d-alpha tocopherol]	1.49 IU	
interferon alfa		stability of reconstituted aqueous solutions [4]: stable
CC(C)(Sc1cc(C(C)(C)C)c(O)c(C(C)(C)C)c1)Sc1cc(C(C)(C)C)c(O)c(C(C)(C)C)c1 [Panavia, 4,4′-isopropylidenedithiobis-2,6-di-t-butylphenol]		CD4 levels (HIV patients): stablized or slightly stabilized
